Laboratory results from patent publication EP0295827A2, “Use of 24,25-dihydroxy-cholecalciferol in mending bone fractures” (priority 1987, dated 1988).

Tests used:
ICR mice [1] = test: 30-day repeated oral administration: biochemical serum test; format: in vivo; parameters: key: ↓: Decreased; →: No change; ↑: Increased; details: 30 days, vs control group
Procedure: (§1) 24R,25-(OH)₂-D₃ was dissolved in 1% ethanol containing Panacate 810 to a predetermined concentration and the resultant solution was forcibly and orally administered to 5-week-old male or female ICR mice for 30 days in succession so that the does might become to 10 µg/kg/day, 100 µg/kg/day and 1,000 µg/kg/day, respectively. The thus treated mice were compared with a group of mice to which only the solvent had been administered in the following test items.

ICR mice [2] = test: 30-day repeated oral administration: urine analysis; format: in vivo; parameters: key: ↓: Decreased; →: No change; ↑: Increased; details: 30 days, vs control group
Procedure: as §1

C=C1CC[C@H](O)C/C1=C/C=C1\CCC[C@]2(C)[C@@H]([C@H](C)CC[C@@H](O)C(C)(C)O)CC[C@@H]12 [24R,25-(OH)₂-D₃]
A/G (ICR mice [1]; female, 10 µg/kg·day oral): → | ALP (ICR mice [1]; female, 10 µg/kg·day oral): → | Aℓb (ICR mice [1]; female, 10 µg/kg·day oral): → | BUN (ICR mice [1]; female, 10 µg/kg·day oral): → | Ca (ICR mice [1]; female, 10 µg/kg·day oral): → | GOT (ICR mice [1]; female, 10 µg/kg·day oral): → | GPT (ICR mice [1]; female, 10 µg/kg·day oral): → | Gℓu (ICR mice [1]; female, 10 µg/kg·day oral): → | I-P (ICR mice [1]; female, 10 µg/kg·day oral): → | LDH (ICR mice [1]; female, 10 µg/kg·day oral): → | T-Biℓ (ICR mice [1]; female, 10 µg/kg·day oral): → | T-CHO (ICR mice [1]; female, 10 µg/kg·day oral): → | T-P (ICR mice [1]; female, 10 µg/kg·day oral): → | A/G (ICR mice [1]; female, 100 µg/kg·day oral): → | ALP (ICR mice [1]; female, 100 µg/kg·day oral): → | Aℓb (ICR mice [1]; female, 100 µg/kg·day oral): → | BUN (ICR mice [1]; female, 100 µg/kg·day oral): → | Ca (ICR mice [1]; female, 100 µg/kg·day oral): → | GOT (ICR mice [1]; female, 100 µg/kg·day oral): → | GPT (ICR mice [1]; female, 100 µg/kg·day oral): → | Gℓu (ICR mice [1]; female, 100 µg/kg·day oral): → | I-P (ICR mice [1]; female, 100 µg/kg·day oral): → | LDH (ICR mice [1]; female, 100 µg/kg·day oral): → | T-Biℓ (ICR mice [1]; female, 100 µg/kg·day oral): → | T-CHO (ICR mice [1]; female, 100 µg/kg·day oral): → | T-P (ICR mice [1]; female, 100 µg/kg·day oral): → | A/G (ICR mice [1]; female, 1000 µg/kg·day oral): → | ALP (ICR mice [1]; female, 1000 µg/kg·day oral): → | Aℓb (ICR mice [1]; female, 1000 µg/kg·day oral): → | BUN (ICR mice [1]; female, 1000 µg/kg·day oral): → | Ca (ICR mice [1]; female, 1000 µg/kg·day oral): → | GOT (ICR mice [1]; female, 1000 µg/kg·day oral): → | GPT (ICR mice [1]; female, 1000 µg/kg·day oral): → | Gℓu (ICR mice [1]; female, 1000 µg/kg·day oral): → | I-P (ICR mice [1]; female, 1000 µg/kg·day oral): → | LDH (ICR mice [1]; female, 1000 µg/kg·day oral): → | T-Biℓ (ICR mice [1]; female, 1000 µg/kg·day oral): → | T-CHO (ICR mice [1]; female, 1000 µg/kg·day oral): → | T-P (ICR mice [1]; female, 1000 µg/kg·day oral): → | A/G (ICR mice [1]; male, 10 µg/kg·day oral): → | ALP (ICR mice [1]; male, 10 µg/kg·day oral): → | Aℓb (ICR mice [1]; male, 10 µg/kg·day oral): → | BUN (ICR mice [1]; male, 10 µg/kg·day oral): → | Ca (ICR mice [1]; male, 10 µg/kg·day oral): → | GOT (ICR mice [1]; male, 10 µg/kg·day oral): → | GPT (ICR mice [1]; male, 10 µg/kg·day oral): → | Gℓu (ICR mice [1]; male, 10 µg/kg·day oral): → | I-P (ICR mice [1]; male, 10 µg/kg·day oral): → | LDH (ICR mice [1]; male, 10 µg/kg·day oral): → | T-Biℓ (ICR mice [1]; male, 10 µg/kg·day oral): → | T-CHO (ICR mice [1]; male, 10 µg/kg·day oral): → | T-P (ICR mice [1]; male, 10 µg/kg·day oral): → | A/G (ICR mice [1]; male, 100 µg/kg·day oral): → | ALP (ICR mice [1]; male, 100 µg/kg·day oral): → | Aℓb (ICR mice [1]; male, 100 µg/kg·day oral): → | BUN (ICR mice [1]; male, 100 µg/kg·day oral): → | Ca (ICR mice [1]; male, 100 µg/kg·day oral): → | GOT (ICR mice [1]; male, 100 µg/kg·day oral): → | GPT (ICR mice [1]; male, 100 µg/kg·day oral): → | Gℓu (ICR mice [1]; male, 100 µg/kg·day oral): → | I-P (ICR mice [1]; male, 100 µg/kg·day oral): → | LDH (ICR mice [1]; male, 100 µg/kg·day oral): → | T-Biℓ (ICR mice [1]; male, 100 µg/kg·day oral): → | T-CHO (ICR mice [1]; male, 100 µg/kg·day oral): → | T-P (ICR mice [1]; male, 100 µg/kg·day oral): → | A/G (ICR mice [1]; male, 1000 µg/kg·day oral): → | ALP (ICR mice [1]; male, 1000 µg/kg·day oral): → | Aℓb (ICR mice [1]; male, 1000 µg/kg·day oral): → | BUN (ICR mice [1]; male, 1000 µg/kg·day oral): ↓ | Ca (ICR mice [1]; male, 1000 µg/kg·day oral): → | GOT (ICR mice [1]; male, 1000 µg/kg·day oral): → | GPT (ICR mice [1]; male, 1000 µg/kg·day oral): → | Gℓu (ICR mice [1]; male, 1000 µg/kg·day oral): ↓ | I-P (ICR mice [1]; male, 1000 µg/kg·day oral): → | LDH (ICR mice [1]; male, 1000 µg/kg·day oral): ↓ | T-Biℓ (ICR mice [1]; male, 1000 µg/kg·day oral): ↓ | T-CHO (ICR mice [1]; male, 1000 µg/kg·day oral): → | T-P (ICR mice [1]; male, 1000 µg/kg·day oral): → | Ketone body (ICR mice [2]; female, 10 μg/kg oral): → | Occult blood (ICR mice [2]; female, 10 μg/kg oral): → | Protein (ICR mice [2]; female, 10 μg/kg oral): → | Sugar (ICR mice [2]; female, 10 μg/kg oral): → | Urobilinogen (ICR mice [2]; female, 10 μg/kg oral): → | pH (ICR mice [2]; female, 10 μg/kg oral): → | Ketone body (ICR mice [2]; female, 100 μg/kg oral): → | Occult blood (ICR mice [2]; female, 100 μg/kg oral): → | Protein (ICR mice [2]; female, 100 μg/kg oral): → | Sugar (ICR mice [2]; female, 100 μg/kg oral): → | Urobilinogen (ICR mice [2]; female, 100 μg/kg oral): → | pH (ICR mice [2]; female, 100 μg/kg oral): → | Ketone body (ICR mice [2]; female, 1000 μg/kg oral): → | Occult blood (ICR mice [2]; female, 1000 μg/kg oral): → | Protein (ICR mice [2]; female, 1000 μg/kg oral): → | Sugar (ICR mice [2]; female, 1000 μg/kg oral): → | Urobilinogen (ICR mice [2]; female, 1000 μg/kg oral): → | pH (ICR mice [2]; female, 1000 μg/kg oral): → | Ketone body (ICR mice [2]; male, 10 μg/kg oral): → | Occult blood (ICR mice [2]; male, 10 μg/kg oral): → | Protein (ICR mice [2]; male, 10 μg/kg oral): → | Sugar (ICR mice [2]; male, 10 μg/kg oral): → | Urobilinogen (ICR mice [2]; male, 10 μg/kg oral): → | pH (ICR mice [2]; male, 10 μg/kg oral): → | Ketone body (ICR mice [2]; male, 100 μg/kg oral): → | Occult blood (ICR mice [2]; male, 100 μg/kg oral): → | Protein (ICR mice [2]; male, 100 μg/kg oral): → | Sugar (ICR mice [2]; male, 100 μg/kg oral): → | Urobilinogen (ICR mice [2]; male, 100 μg/kg oral): → | pH (ICR mice [2]; male, 100 μg/kg oral): → | Ketone body (ICR mice [2]; male, 1000 μg/kg oral): → | Occult blood (ICR mice [2]; male, 1000 μg/kg oral): → | Protein (ICR mice [2]; male, 1000 μg/kg oral): → | Sugar (ICR mice [2]; male, 1000 μg/kg oral): → | Urobilinogen (ICR mice [2]; male, 1000 μg/kg oral): → | pH (ICR mice [2]; male, 1000 μg/kg oral): →
